Source: patent US20080146538A1, “Compounds 614” (priority 2006, published 2008)
pIC50: −log10 of the molar value. Structures can show the parent of a compound that is named as a salt.

Assays:
human NK1 receptor = target: T1, human NK1 receptor (Homo sapiens, UniProt P25103); experiment: FLIPR assay, inhibition of human NK1 receptor activation (intracellular Ca2+); type: cell-based
T1 construct: Human NK1 receptor cDNA (obtained from RNA-PCR from lung tissue) was subcloned into pRcCMV (Invitrogen); expressed in transfected cells
T1 sequence (P25103 whole entry): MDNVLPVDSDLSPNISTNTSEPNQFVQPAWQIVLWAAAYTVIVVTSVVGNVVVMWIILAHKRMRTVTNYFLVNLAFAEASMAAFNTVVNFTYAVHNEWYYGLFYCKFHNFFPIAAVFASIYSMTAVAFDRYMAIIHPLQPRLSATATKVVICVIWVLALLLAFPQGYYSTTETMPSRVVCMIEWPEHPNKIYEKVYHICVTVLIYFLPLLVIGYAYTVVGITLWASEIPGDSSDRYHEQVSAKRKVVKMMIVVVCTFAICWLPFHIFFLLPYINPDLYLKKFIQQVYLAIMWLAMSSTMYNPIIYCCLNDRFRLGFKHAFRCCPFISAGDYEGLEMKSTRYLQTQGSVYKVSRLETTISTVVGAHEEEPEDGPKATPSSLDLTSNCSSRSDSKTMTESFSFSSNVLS
Protocol: (§1) Chinese Hamster Ovary (CHO) K1 cells (obtained from ATCC) were stably transfected with the human NK2 receptor (hNK2R cDNA in pRc/CMV, Invitrogen) or the human NK3 receptor (hNK3R in pcDNA 3.1/Hygro (+)/IRES/CD8, Invitrogen vector modified at AstraZeneca EST-Bio UK, Alderley Park). The cells were transfected with the cationic lipid reagent LIPOFECTAMINE™ (Invitrogen) and selection was performed with Geneticin (G418, Invitrogen) at 1 mg/ml for the hNK2R transfected cells and with Hygromycin (Invitrogen) at 500 μg/ml for the hNK3R transfected cells. Single cell clones were collected by aid of Fluorescence Activated Cell Sorter (FACS), tested for functionality in a FLIPR assay (see below), expanded in culture and cryopreserved for future use. […]
(§2) The activity of a compound of the invention to inhibit NK1/NK2/NK3 receptor activation measured as NK1/NK2/NK3 receptor mediated increase in intracellular Ca^2+ was assessed by the following procedure:
(§3) CHO cells stably transfected with human NK1, NK2 or NK3 receptors were plated in black walled/clear bottomed 96-well plates (Costar 3904) at 3.5×10^4 cells per well and grown for approximately 24 h in normal growth media in a 37° C. […] The response was measured as the peak relative fluorescence after agonist addition and IC50s were calculated from ten-point concentration-response curves for each compound. […]

human NK3 receptor = target: T2, human NK3 receptor (Homo sapiens, UniProt P29371); experiment: FLIPR assay, inhibition of human NK3 receptor activation (intracellular Ca2+); type: cell-based
T2 construct: expressed in transfected cells
T2 sequence (P29371 1-465): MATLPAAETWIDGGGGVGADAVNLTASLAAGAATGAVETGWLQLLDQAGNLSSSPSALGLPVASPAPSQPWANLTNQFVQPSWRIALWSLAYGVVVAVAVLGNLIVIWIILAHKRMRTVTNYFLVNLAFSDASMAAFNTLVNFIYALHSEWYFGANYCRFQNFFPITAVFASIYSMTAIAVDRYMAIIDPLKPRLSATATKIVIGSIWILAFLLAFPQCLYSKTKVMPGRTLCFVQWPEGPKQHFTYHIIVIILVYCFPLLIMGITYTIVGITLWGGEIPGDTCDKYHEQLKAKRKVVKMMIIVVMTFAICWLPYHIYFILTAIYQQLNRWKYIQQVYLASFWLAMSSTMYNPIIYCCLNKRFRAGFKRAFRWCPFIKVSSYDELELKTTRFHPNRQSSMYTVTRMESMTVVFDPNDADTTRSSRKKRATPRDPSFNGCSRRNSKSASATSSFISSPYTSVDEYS
Protocol: as §1, §2, §3

[1] = target: hERG-encoded potassium channel (Homo sapiens, UniProt Q12809); experiment: Activity against hERG (planar-array-based voltage clamp); type: cell-based
hERG-encoded potassium channel, sequence (Q12809 whole entry): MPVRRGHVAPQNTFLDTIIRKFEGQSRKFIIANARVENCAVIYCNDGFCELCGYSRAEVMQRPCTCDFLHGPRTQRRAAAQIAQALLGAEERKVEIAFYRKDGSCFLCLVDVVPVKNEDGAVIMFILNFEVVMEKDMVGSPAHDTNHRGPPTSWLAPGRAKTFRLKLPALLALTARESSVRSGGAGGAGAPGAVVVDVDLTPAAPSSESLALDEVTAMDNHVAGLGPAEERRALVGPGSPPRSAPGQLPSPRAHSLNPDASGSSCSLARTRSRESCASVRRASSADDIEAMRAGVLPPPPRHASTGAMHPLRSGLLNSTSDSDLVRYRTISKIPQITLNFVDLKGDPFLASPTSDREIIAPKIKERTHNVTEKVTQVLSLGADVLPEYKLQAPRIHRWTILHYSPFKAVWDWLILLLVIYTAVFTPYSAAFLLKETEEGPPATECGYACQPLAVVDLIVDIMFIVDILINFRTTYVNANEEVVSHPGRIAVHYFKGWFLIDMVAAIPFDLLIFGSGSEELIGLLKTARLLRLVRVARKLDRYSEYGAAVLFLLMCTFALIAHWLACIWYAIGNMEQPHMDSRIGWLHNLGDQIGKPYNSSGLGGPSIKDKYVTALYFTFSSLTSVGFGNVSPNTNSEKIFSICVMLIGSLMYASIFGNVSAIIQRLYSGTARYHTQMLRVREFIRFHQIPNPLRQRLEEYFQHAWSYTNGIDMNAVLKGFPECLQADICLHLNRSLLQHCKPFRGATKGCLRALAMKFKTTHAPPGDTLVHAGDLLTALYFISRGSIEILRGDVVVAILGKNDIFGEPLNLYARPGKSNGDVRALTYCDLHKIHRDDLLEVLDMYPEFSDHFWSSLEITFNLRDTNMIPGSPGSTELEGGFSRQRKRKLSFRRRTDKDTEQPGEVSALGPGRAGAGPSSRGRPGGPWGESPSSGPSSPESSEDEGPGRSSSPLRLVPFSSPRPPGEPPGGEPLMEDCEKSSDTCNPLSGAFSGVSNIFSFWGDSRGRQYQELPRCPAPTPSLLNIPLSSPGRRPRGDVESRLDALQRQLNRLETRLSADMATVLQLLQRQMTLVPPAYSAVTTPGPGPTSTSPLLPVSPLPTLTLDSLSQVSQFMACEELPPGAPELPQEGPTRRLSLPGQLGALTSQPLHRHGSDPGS
Description: The activity of compounds according to formula I against the hERG-encoded potassium channel can be determined according to Kiss L, et al. Assay Drug Dev Technol. 1 (2003), 127-35: “High throughput ion-channel pharmacology: planar-array-based voltage clamp”.

[2] = Metabolic stability in liver microsomes (intrinsic clearance); type: in vitro ADME; settings: human, pH 7.4, HLM
Protocol: The metabolic stability of compounds according to formula I can be determined as described below: The rate of biotransformation can be measured as either metabolite(s) formation or the rate of disappearance of the parent compound. The experimental design involves incubation of low concentrations of substrate (usually 1.0 μM) with liver microsomes (usually 0.5 mg/ml) and taking out aliquotes at varying time points (usually 0, 5, 10, 15, 20, 30, 40 min.). The test compound is usually dissolved in DMSO. The DMSO concentration in the incubation mixture is usually 0.1% or less since more solvent can drastically reduce the activities of some CYP450s. Incubations are done in 100 mM potassium phosphate buffer, pH 7.4 and at 37° C. Acetonitrile or methanol is used to stop the reaction. The parent compound is analysed by HPLC-MS. From the calculated half-life, t1/2, the intrinsic clearance, Clint, is estimated by taking microsomal protein concentration and liver weight is into account.

human NK2 receptor = target: T3, human NK2 receptor (Homo sapiens, UniProt P21452); experiment: FLIPR assay, inhibition of human NK2 receptor activation (intracellular Ca2+); type: cell-based
T3 construct: expressed in transfected cells
T3 sequence (P21452 1-398): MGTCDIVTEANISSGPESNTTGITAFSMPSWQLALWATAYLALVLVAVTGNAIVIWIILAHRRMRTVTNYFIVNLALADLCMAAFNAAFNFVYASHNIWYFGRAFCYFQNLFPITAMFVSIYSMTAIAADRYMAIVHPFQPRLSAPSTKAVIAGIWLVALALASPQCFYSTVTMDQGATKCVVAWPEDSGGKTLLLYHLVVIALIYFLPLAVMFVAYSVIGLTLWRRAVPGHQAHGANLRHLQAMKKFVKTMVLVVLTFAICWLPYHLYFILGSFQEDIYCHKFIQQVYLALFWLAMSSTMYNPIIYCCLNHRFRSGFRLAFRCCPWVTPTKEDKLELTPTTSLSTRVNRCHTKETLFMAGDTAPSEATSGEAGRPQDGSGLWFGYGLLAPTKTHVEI
Protocol: as §1, §2, §3

CN(C[C@@H](CCN1CC(N2[C@@H]3CC[C@H]2CC(O)C3)C1)c1ccc(F)cc1)C(=O)c1cc(Br)cc(C(F)(F)F)c1 (stereo partly drawn) [Ex 1, exo-3-Bromo-N-((2S)-2-(4-fluorophenyl)-4-{3-(3-hydroxy-8-azabicyclo[3.2.1]oct-8-yl)azetidin-1-yl}butyl)-N-methyl-5-(trifluoromethyl)benzamide dihydrochloride]
Kb (human NK1 receptor): 7.94 nM | Kb (human NK3 receptor): 12.6 nM | pIC50 [1]: 4.89 | microsomal CLint at 1 μM [2]: 28 µL/min/mg | Kb (human NK2 receptor): 7.94 nM
